In patent US20230093099A1, “COMPOUNDS AND METHODS OF TREATING CANCERS” (CULLGEN (SHANGHAI), INC., priority 2019, published 2023) one finds IC50 data, which are given here for 18 compounds.

A value given as a limit tells only on which side of the number the result lay.

The subject of the first test is RS4;11 cells. Kind of test: Cell viability assay (CellTiter-Glo) in RS4;11 cells. Conditions: Homo sapiens, 72 h; RS4;11 ALL cells treated for three days; read-out: cell viability inhibition IC50. Type of test: cell-based. On the procedure: Specific exemplary heterobifunctional compounds were first characterized using cell viability assays. RS4;11 ALL cells were treated with bifunctional degraders for three days. The IC50 values ranged from 2 nM to over 10 uM.
MV4;11, RS4;11, Kasumi-1, HEL and other cells were treated with NVP-BSK805, TG101209 or selected degraders for 3 days at indicated concentrations following a 3-fold serial dilution.
HEL, RS4;11, MV4;11, Kasumi-1 and other cells were cultured at 37° C. with 5% CO2 in RPMI 1640 or DMEM Medium supplemented with 10% fetal bovine serum. Cells were authenticated using the short tandem repeat (STR) assays. Mycoplasma test results were negative.
Cells were seeded at a density of 5000 cells per well in 96-well assay plates and treated with test compounds following a 8-point or 12-point 3-fold serial dilution. Three days later, cell viability was determined using the CellTiter-Glo assay kit according to the manufacturer's instructions. The dose-response curves were determined and IC50 values were calculated using the GraphPad Prism software following a nonlinear regression (least squares fit) method.
Background: ATP-based viability assays read luminescence as a measure of living cells.
A word on the IC50: it is the concentration needed to halve the response being measured. As for `CS(=O)(=O)c1ccc(-c2cccc3nc(Nc4ccc(N5CCN(C(=O)CCNc6ccc7c(c6)C(=O)N(C6CCC(=O)NC6=O)C7=O)CC5)cc4)nn23)cc1` (stereo not shown) [JA-202], the IC50 was under 100 nM.

The test is the same for the next values; noted with them: Homo sapiens, 72 h; RS4;11 cells; cell viability, 3 days, CellTiter-Glo; read-out: IC50.
With `Cc1cnc(Nc2ccc(N3CCN(CC(=O)NCCOCCOCCOCCNc4ccc5c(c4)C(=O)N(C4CCC(=O)NC4=O)C5=O)CC3)cc2)nc1Nc1cccc(S(=O)(=O)NC(C)(C)C)c1` (stereo not shown) [JA-239, 2-(4-(4-((4-((3-(N-(tert-butyl)sulfamoyl)phenyl)amino)-5-methylpyrimidin-2-yl)amino)phenyl)piperazin-1-yl)-N-(2-(2-(2-(2-((2-(2,6-dioxopiperidin-3-yl)-1,3-dioxoisoindolin-5-yl)amino)ethoxy)ethoxy)ethoxy)ethyl)acetamide], the IC50 amounted to 743 nM. With `Cn1c(=O)n(C2CCC(=O)NC2=O)c2cccc(NCCCCCCC(=O)N3CCC(n4cc(-c5cnc6cccc(-c7cc(F)c(CN8CCOCC8)c(F)c7)c6n5)cn4)CC3)c21` (stereo not shown) [JA-283, 3-(4-((7-(4-(4-(8-(3,5-Difluoro-4-(morpholinomethyl)phenyl)quinoxalin-2-yl)-1H-pyrazol-1-yl)piperidin-1-yl)-7-oxoheptyl)amino)-3-methyl-2-oxo-2,3-dihydro-1H-benzo[d]imidazol-1-yl)piperidine-2,6-dione], the IC50 is over 500 nM. Regarding `CS(=O)(=O)c1ccc(-c2cccc3nc(Nc4ccc(N5CCN(C(=O)CCOCCOCCNc6ccc7c(c6)C(=O)N(C6CCC(=O)NC6=O)C7=O)CC5)cc4)nn23)cc1` (stereo not shown) [JA-201], the concentration for half-maximal inhibition (IC50) was 241 nM. Still for that read-out and setting: for `Cc1cnc(Nc2ccc(N3CCN(C(=O)CCOCCOCCOCCNc4cccc5c4C(=O)N(C4CCC(=O)NC4=O)C5=O)CC3)cc2)nc1Nc1cccc(S(=O)(=O)NC(C)(C)C)c1` (stereo not shown) [JA-019, N-(tert-Butyl)-3-((2-((4-(4-(3-(2-(2-(2-((2-(2,6-dioxopiperidin-3-yl)-1,3-dioxoisoindolin-4-yl)amino)ethoxy)ethoxy)ethoxy)propanoyl)piperazin-1-yl)phenyl)amino)-5-methylpyrimidin-4-yl)amino)benzenesulfonamide] the value was 357 nM; for `Cc1cnc(Nc2ccc(N3CCN(CC(=O)NCCOCCOCCNc4cccc5c4C(=O)N(C4CCC(=O)NC4=O)C5=O)CC3)cc2)nc1Nc1cccc(S(=O)(=O)NC(C)(C)C)c1` (stereo not shown) [JA-086, 2-(4-(4-((4-((3-(N-(tert-Butyl)sulfamoyl)phenyl)amino)-5-methylpyrimidin-2-yl)amino)phenyl)piperazin-1-yl)-N-(2-(2-(2-((2-(2,6-dioxopiperidin-3-yl)-1,3-dioxoisoindolin-4-yl)amino)ethoxy)ethoxy)ethyl)acetamide], 564 nM. As for `CS(=O)(=O)c1ccc(-c2cccc3nc(Nc4ccc(N5CCN(C(=O)CCOCCOCCOCCNc6ccc7c(c6)C(=O)N(C6CCC(=O)NC6=O)C7=O)CC5)cc4)nn23)cc1` (stereo not shown) [JA-200, 2-(2,6-Dioxopiperidin-3-yl)-5-((2-(2-(2-(3-(4-(4-((5-(4-(methylsulfonyl)phenyl)-[1,2,4]triazolo[1,5-a]pyridin-2-yl)amino)phenyl)piperazin-1-yl)-3-oxopropoxy)ethoxy)ethoxy)ethyl)amino)isoindoline-1,3-dione], the IC50 is 403 nM. On the same count and under the same terms, for `Cc1ncsc1-c1ccc(CNC(=O)[C@@H]2C[C@@H](O)CN2C(=O)[C@@H](NC(=O)CCCCCCCCCNC(=O)CN2CCN(c3ccc(Nc4nc5cccc(-c6ccc(S(C)(=O)=O)cc6)n5n4)cc3)CC2)C(C)(C)C)cc1` [JA-120, (2S,4R)-1-((S)-3,3-Dimethyl-2-(10-(2-(4-(4-((5-(4-(methylsulfonyl)phenyl)-[1,2,4]triazolo[1,5-a]pyridin-2-yl)amino)phenyl)piperazin-1-yl)acetamido)decanamido)butanoyl)-4-hydroxy-N-(4-(4-methylthiazol-5-yl)benzyl)pyrrolidine-2-carboxamide] the value was over 10000 nM. On to `Cc1cnc(Nc2ccc(N3CCN(C(=O)CCOCCNc4cccc5c4C(=O)N(C4CCC(=O)NC4=O)C5=O)CC3)cc2)nc1Nc1cccc(S(=O)(=O)NC(C)(C)C)c1` (stereo not shown) [JA-017, N-(tert-Butyl)-3-((2-((4-(4-(3-(2-((2-(2,6-dioxopiperidin-3-yl)-1,3-dioxoisoindolin-4-yl)amino)ethoxy)propanoyl)piperazin-1-yl)phenyl)amino)-5-methylpyrimidin-4-yl)amino)benzenesulfonamide], for which the IC50 is over 10000 nM.

Regarding `Cn1c(=O)n(C2CCC(=O)NC2=O)c2cccc(NCCCCCC(=O)N3CCC(n4cc(-c5cnc6cccc(-c7cc(F)c(CN8CCOCC8)c(F)c7)c6n5)cn4)CC3)c21` (stereo not shown) [JA-282, 3-(4-((6-(4-(4-(8-(3,5-Difluoro-4-(morpholinomethyl)phenyl)quinoxalin-2-yl)-1H-pyrazol-1-yl)piperidin-1-yl)-6-oxohexyl)amino)-3-methyl-2-oxo-2,3-dihydro-1H-benzo[d]imidazol-1-yl)piperidine-2,6-dione], the IC50 was over 500 nM. On the same count and under the same terms, for `O=C(CN1CCC(n2cc(-c3cnc4cccc(-c5cc(F)c(CN6CCOCC6)c(F)c5)c4n3)cn2)CC1)NCCNc1cccc2c1C(=O)N(C1CCC(=O)NC1=O)C2=O` (stereo not shown) [JA-144, 2-[4-[4-[8-[3,5-Difluoro-4-(morpholinomethyl)phenyl]quinoxalin-2-yl]pyrazol-1-yl]-1-piperidyl]-N-[2-[[2-(2,6-dioxo-3-piperidyl)-1,3-dioxo-isoindolin-4-yl]amino]ethyl]acetamide] the value was 2390 nM; for `CS(=O)(=O)c1ccc(-c2cccc3nc(Nc4ccc(N5CCN(C(=O)CCOCCOCCNc6cccc7c6C(=O)N(C6CCC(=O)NC6=O)C7=O)CC5)cc4)nn23)cc1` (stereo not shown) [JA-075, 2-(2,6-Dioxopiperidin-3-yl)-4-((2-(2-(3-(4-(4-((5-(4-(methylsulfonyl)phenyl)-[1,2,4]triazolo[1,5-a]pyridin-2-yl)amino)phenyl)piperazin-1-yl)-3-oxopropoxy)ethoxy)ethyl)amino)isoindoline-1,3-dione], 2430 nM; for `Cc1cnc(Nc2ccc(N3CCN(C(=O)CCCCCCC(=O)N[C@H](C(=O)N4C[C@H](O)C[C@H]4C(=O)NCc4ccc(-c5scnc5C)cc4)C(C)(C)C)CC3)cc2)nc1Nc1cccc(S(=O)(=O)NC(C)(C)C)c1` [JA-026, (2S,4R)-1-((S)-2-(8-(4-(4-((4-((3-(N-(tert-Butyl)sulfamoyl)phenyl)amino)-5-methylpyrimidin-2-yl)amino)phenyl)piperazin-1-yl)-8-oxooctanamido)-3,3-dimethylbutanoyl)-4-hydroxy-N-(4-(4-methylthiazol-5-yl)benzyl)pyrrolidine-2-carboxamide], over 10000 nM. For the compound `Cc1cnc(Nc2ccc(N3CCN(C(=O)CCCCCCNc4cccc5c4C(=O)N(C4CCC(=O)NC4=O)C5=O)CC3)cc2)nc1Nc1cccc(S(=O)(=O)NC(C)(C)C)c1` (stereo not shown) [JA-015, N-(tert-Butyl)-3-((2-((4-(4-(7-((2-(2,6-dioxopiperidin-3-yl)-1,3-dioxoisoindolin-4-yl)amino)heptanoyl)piperazin-1-yl)phenyl)amino)-5-methylpyrimidin-4-yl)amino)benzenesulfonamide], the IC50 was over 10000 nM. With `Cc1ncsc1-c1ccc(CNC(=O)[C@@H]2C[C@@H](O)CN2C(=O)[C@@H](NC(=O)CCNC(=O)CN2CCN(c3ccc(Nc4nc5cccc(-c6ccc(S(C)(=O)=O)cc6)n5n4)cc3)CC2)C(C)(C)C)cc1` [JA-119, (2S,4R)-1-((S)-3,3-Dimethyl-2-(3-(2-(4-(4-((5-(4-(methylsulfonyl)phenyl)-[1,2,4]triazolo[1,5-a]pyridin-2-yl)amino)phenyl)piperazin-1-yl)acetamido)propanamido)butanoyl)-4-hydroxy-N-(4-(4-methylthiazol-5-yl)benzyl)pyrrolidine-2-carboxamide], the IC50 was over 10000 nM. On the same count and under the same terms, with `CS(=O)(=O)c1ccc(-c2cccc3nc(Nc4ccc(N5CCN(C(=O)CCNc6ccc7c(c6)C(=O)N(C6CCC(=O)NC6=O)C7=O)CC5)cc4)nn23)cc1` (stereo not shown) [JA-202] the figure was 108 nM; with `Cc1ncsc1-c1ccc(CNC(=O)[C@@H]2C[C@@H](O)CN2C(=O)[C@@H](NC(=O)COCCOCCOCC(=O)N2CCN(c3ccc(Nc4nc5cccc(-c6ccc(S(C)(=O)=O)cc6)n5n4)cc3)CC2)C(C)(C)C)cc1` [JA-064, (2S,4R)-1-((S)-2-(tert-Butyl)-14-(4-(4-((5-(4-(methylsulfonyl)phenyl)-[1,2,4]triazolo[1,5-a]pyridin-2-yl)amino)phenyl)piperazin-1-yl)-4,14-dioxo-6,9,12-trioxa-3-azatetradecanoyl)-4-hydroxy-N-(4-(4-methylthiazol-5-yl)benzyl)pyrrolidine-2-carboxamide], over 10000 nM; with `O=C1CCC(N2C(=O)c3ccc(NCCOCCOCCOCCOCCC(=O)N4CCC(n5cc(-c6cnc7cccc(-c8cc(F)c(CN9CCOCC9)c(F)c8)c7n6)cn5)CC4)cc3C2=O)C(=O)N1` (stereo not shown) [JA-185, 5-((15-(4-(4-(8-(3,5-Difluoro-4-(morpholinomethyl)phenyl)quinoxalin-2-yl)-1H-pyrazol-1-yl)piperidin-1-yl)-15-oxo-3,6,9,12-tetraoxapentadecyl)amino)-2-(2,6-dioxopiperidin-3-yl)isoindoline-1,3-dione], over 10000 nM. The same measure, in the same setting: for `O=C(CN1CCC(n2cc(-c3cnc4cccc(-c5cc(F)c(CN6CCOCC6)c(F)c5)c4n3)cn2)CC1)NCCCNc1ccc2c(c1)C(=O)N(C1CCC(=O)NC1=O)C2=O` (stereo not shown) [JA-175, 2-(4-(4-(8-(3,5-Difluoro-4-(morpholinomethyl)phenyl)quinoxalin-2-yl)-1H-pyrazol-1-yl)piperidin-1-yl)-N-(3-((2-(2,6-dioxopiperidin-3-yl)-1,3-dioxoisoindolin-5-yl)amino)propyl)acetamide] the value was 128 nM.
